Laboratory results from article PMC6832920, “Synthesis, Docking Studies, and In Vitro Evaluation of Some Novel Thienopyridines and Fused Thienopyridine–Quinolines as Antibacterial Agents and DNA Gyrase Inhibitors” (Molecules, 2019).
Values after ≈ are worked out from the molar mass of the structure shown.

Experiments:
[1] = system: Staphylococcus aureus 25923; experiment: agar disc-diffusion antibacterial assay; type: cell-based; details: S. aureus 25923, disc loaded with 100 μg, 37 °C, 24 h, read-out: diameter of inhibition zone
Experimental: (§1) The clinical control strains of Gram-negative bacteria (Escherichia coli 8739, Salmonella typhimurium 14028, Pseudomonas aeruginosa 27853) and Gram-positive bacteria (Bacillus subtilis 6633, Bacillus cereus 33018, Staphylococcus aureus 25923), were obtained from microbial inoculums by subculturing microorganisms into nutrient broth (NB) at 37 °C for 18 h, and were adjusted to 0.125 A° at 625 nm (equivalent to a McFarland 0.5) in 2-fold NB. A 100 μL measure of NB containing each test microorganism was added to the sterile Petri dishes. Antibacterial testing was carried out on all compounds (3a,b–14) using the agar disc-diffusion method [40]. Sterile nutrients were inoculated with 100 μL cell suspension of the chosen test microorganism and poured into Petri dishes (20 cm diameter). Filter paper discs (Whatman, No.3, diameter 5 mm) were loaded with 10 μL containing 100 μg of the tested compounds, as well as the standard drug. Composite compound disks were placed on the surface of inoculated agar plates and kept at low temperatures before incubation in order to support the swelling and diffusion of the microbial growth. The plates were incubated at 37 °C in the incubator. Experiments were performed in duplicate and the diameters of inhibition zones were measured after 24 h. A diameter of inhibition zone (DIZ) assay was performed to evaluate the antimicrobial potential of the compounds against the tested organisms compared with reference antibiotics.

[2] = system: Escherichia coli 8739; experiment: agar disc-diffusion antibacterial assay; type: cell-based; details: E. coli 8739, disc loaded with 100 μg, 37 °C, 24 h, read-out: diameter of inhibition zone
Experimental: as §1

[3] = target: T1, DNA gyrase from E. coli (Escherichia coli, UniProt P0AES6); experiment: Escherichia coli DNA gyrase supercoiling inhibition assay; type: biochemical
T1 construct: purchased TopoGEN

[4] = system: Bacillus cereus 33018; experiment: MIC determination by dilution procedure; type: cell-based; details: B. cereus 33018, dilutions 125-1.95 μg/mL, read-out: minimum inhibitory concentration (MIC)
Experimental: (§2) A 100 μL measure of NB containing each test microorganism was added to the sterile Petri dishes. Antibacterial testing was carried out on all compounds (3a,b–14) using the agar disc-diffusion method [40]. Sterile nutrients were inoculated with 100 μL cell suspension of the chosen test microorganism and poured into Petri dishes (20 cm diameter). Filter paper discs (Whatman, No.3, diameter 5 mm) were loaded with 10 μL containing 100 μg of the tested compounds, as well as the standard drug. Composite compound disks were placed on the surface of inoculated agar plates and kept at low temperatures before incubation in order to support the swelling and diffusion of the microbial growth. The plates were incubated at 37 °C in the incubator. Experiments were performed in duplicate and the diameters of inhibition zones were measured after 24 h. A diameter of inhibition zone (DIZ) assay was performed to evaluate the antimicrobial potential of the compounds against the tested organisms compared with reference antibiotics.

[5] = system: Pseudomonas aeruginosa 27853; experiment: MIC determination by dilution procedure; type: cell-based; details: Pseudomonas aeruginosa, 27853, P. aeruginosa 27853; dilutions 125-1.95 μg/mL; read-out: minimum inhibitory concentration (MIC)
[6] = system: Escherichia coli 8739; experiment: MIC determination by dilution procedure; type: cell-based; details: E. coli 8739, dilutions 125-1.95 μg/mL, read-out: minimum inhibitory concentration (MIC)
[7] = system: Pseudomonas aeruginosa 27853; experiment: agar disc-diffusion antibacterial assay; type: cell-based; details: P. aeruginosa 27853, disc loaded with 100 μg, 37 °C, 24 h, read-out: diameter of inhibition zone
Experimental: as §1

[8] = system: Bacillus cereus 33018; experiment: agar disc-diffusion antibacterial assay; type: cell-based; details: B. cereus 33018, disc loaded with 100 μg, 37 °C, 24 h, read-out: diameter of inhibition zone
Experimental: as §2

[9] = system: Staphylococcus aureus 25923; experiment: MIC determination by dilution procedure; type: cell-based; details: Staphylococcus aureus, 25923, S. aureus 25923; dilutions 125-1.95 μg/mL; read-out: minimum inhibitory concentration (MIC)
Experimental: as §2

[10] = system: Bacillus subtilis 6633; experiment: agar disc-diffusion antibacterial assay; type: cell-based; details: B. subtilis 6633, disc loaded with 100 μg, 37 °C, 24 h, read-out: diameter of inhibition zone
Experimental: as §2

[11] = system: Salmonella typhimurium 14028; experiment: MIC determination by dilution procedure; type: cell-based; details: Salmonella enterica; S. typhimurium 14028; dilutions 125-1.95 μg/mL; read-out: minimum inhibitory concentration (MIC)
Experimental: (§3) The clinical control strains of Gram-negative bacteria (Escherichia coli 8739, Salmonella typhimurium 14028, Pseudomonas aeruginosa 27853) and Gram-positive bacteria (Bacillus subtilis 6633, Bacillus cereus 33018, Staphylococcus aureus 25923), were obtained from microbial inoculums by subculturing microorganisms into nutrient broth (NB) at 37 °C for 18 h, and were adjusted to 0.125 A° at 625 nm (equivalent to a McFarland 0.5) in 2-fold NB. A 100 μL measure of NB containing each test microorganism was added to the sterile Petri dishes. Antibacterial testing was carried out on all compounds (3a,b–14) using the agar disc-diffusion method [40]. Sterile nutrients were inoculated with 100 μL cell suspension of the chosen test microorganism and poured into Petri dishes (20 cm diameter). Filter paper discs (Whatman, No.3, diameter 5 mm) were loaded with 10 μL containing 100 μg of the tested compounds, as well as the standard drug. Composite compound disks were placed on the surface of inoculated agar plates and kept at low temperatures before incubation in order to support the swelling and diffusion of the microbial growth. The plates were incubated at 37 °C in the incubator. Experiments were performed in duplicate and the diameters of inhibition zones were measured after 24 h.

[12] = system: Bacillus subtilis 6633; experiment: MIC determination by dilution procedure; type: cell-based; details: B. subtilis 6633, dilutions 125-1.95 μg/mL, read-out: minimum inhibitory concentration (MIC)
Experimental: as §2

[13] = system: Salmonella typhimurium 14028; experiment: agar disc-diffusion antibacterial assay; type: cell-based; details: Salmonella enterica; S. typhimurium 14028; disc loaded with 100 μg; 37 °C, 24 h; read-out: diameter of inhibition zone
Experimental: as §3

[14] = system: methicillin-resistant Staphylococcus aureus (MRSA); experiment: inhibition zones against MRSA (disc diffusion); type: cell-based

Row | Compound | zone of inhibition at 100 µg/disc [1] | zone of inhibition at 100 µg/disc [2] | IC50 [3] | MIC [4] | MIC [5] | MIC [6] | zone of inhibition at 100 µg/disc [7] | zone of inhibition at 100 µg/disc [8] | MIC [9] | zone of inhibition at 100 µg/disc [10] | MIC [11] | MIC [12] | zone of inhibition at 100 µg/disc [13] | melting point | zone of inhibition against MRSA [14]
1 | COc1ccc(-c2cc(-c3ccco3)nc3sc(C(N)=O)c(N)c23)cc1 [Compound 3a, 3-Amino-6-(furan-2-yl)-4-(4-methoxyphenyl)thieno[2,3-b]pyridine-2-carboxamide] | 12 mm | 18 mm | 2.26 ± 0.19 µM | 31.2 µg/mL (≈ 85.5 µM) | 15.6 µg/mL (≈ 42.8 µM) | 15.6 µg/mL (≈ 42.8 µM) | 15 mm | 13 mm | 31.2 µg/mL (≈ 85.5 µM) | 10 mm | 15.6 µg/mL (≈ 42.8 µM) | 31.2 µg/mL (≈ 85.5 µM) | 15 mm |  | 
2 | NC(=O)c1sc2nc(-c3ccco3)cc(-c3cccs3)c2c1N [Compound 3b, 3-Amino-6-(furan-2-yl)-4-(thiophen-2-yl)thieno[2,3-b]pyridine-2-carboxamide] | 13 mm | 19 mm | 4.5 ± 0.32 µM | 15.6 µg/mL (≈ 45.8 µM) | 31.2 µg/mL (≈ 91.5 µM) | 15.6 µg/mL (≈ 45.8 µM) | 13 mm | 18 mm | 31.2 µg/mL (≈ 91.5 µM) | 12 mm | 15.6 µg/mL (≈ 45.8 µM) | 31.2 µg/mL (≈ 91.5 µM) | 18 mm | 253 °C | 
3 | COc1ccc(-c2cc(-c3ccco3)nc3sc(C(N)=O)c(N=C4CCCCC4)c23)cc1 [Compound 4a, 3-(Cyclohexylideneamino)-6-(furan-2-yl)-4-(4-methoxyphenyl)thieno[2,3-b]pyridine-2-carboxamide] | 18 mm | 18 mm | 3.69 ± 0.15 µM | 15.6 µg/mL (≈ 35.1 µM) | 31.2 µg/mL (≈ 70.1 µM) | 15.6 µg/mL (≈ 35.1 µM) | 13 mm | 16 mm | 15.6 µg/mL (≈ 35.1 µM) | 15 mm | 15.6 µg/mL (≈ 35.1 µM) | 15.6 µg/mL (≈ 35.1 µM) | 15 mm |  | 13 mm
4 | Nc1c2c(nc3c1sc1nc(-c4ccco4)cc(-c4cccs4)c13)CCCC2 [Compound 5b, 2-(Furan-2-yl)-4-(thiophen-2-yl)-6,7,8,9-tetrahydropyrido[3′,2′:4,5]thieno[3,2-b]quinolin-10-amine] | 13 mm | 15 mm | 16.7 ± 0.88 µM | 15.6 µg/mL (≈ 38.7 µM) | 15.6 µg/mL (≈ 38.7 µM) | 15.6 µg/mL (≈ 38.7 µM) | 14 mm | 16 mm | 31.2 µg/mL (≈ 77.4 µM) | 12 mm | 15.6 µg/mL (≈ 38.7 µM) | 31.2 µg/mL (≈ 77.4 µM) | 17 mm | 248 °C | 
5 | CC1=NN=C(Nc2c3c(nc4c2sc2nc(-c5ccco5)cc(-c5cccs5)c24)CCCC3)C1 [Compound 14, 2-(furan-2-yl)-N-(5-methyl-4H-pyrazol-3-yl) -4-(thiophen-2-yl)-6,7,8,9-tetrahydropyrido[3′,2′:4,5]thieno[3,2-b]quinolin-10-amine] | 13 mm | 15 mm | 11.7 ± 0.93 µM | 15.6 µg/mL (≈ 32.3 µM) | 31.2 µg/mL (≈ 64.6 µM) | 15.6 µg/mL (≈ 32.3 µM) | 10 mm | 17 mm | 31.2 µg/mL (≈ 64.6 µM) | 16 mm | 31.2 µg/mL (≈ 64.6 µM) | 15.6 µg/mL (≈ 32.3 µM) | 12 mm | 274 °C | 
6 | CNC(C)C1CCC(N)C(OC2C(N)CC(N)C(OC3OCC(C)(O)C(NC)C3O)C2O)O1 (stereo not shown) [Gentamicin, gentamicin, reference compound] |  |  |  |  |  |  |  |  |  |  |  |  |  |  | 15 mm
